# Measured values reported in patent US20160311886A1, “Constructs Binding to Phosphatidylserine and Their Use in Disease Treatment and Imaging” (Board of Regents, The University of Texas System, priority 2005, published 2016).
# Read-outs that look alike come from different tables or passages of the source.
# B1: 3G4: Mouse IgG3 kappa monoclonal antibody to PS and anionic phospholipids; binding mediated by β2-glycoprotein I (antibody, listed as Mus musculus)
# VH: MGWTWIFILILSVTTGVHSEVQLQQSGPELEKPGASVKLSCKASGYSFTGYNMNWVKQSHGKSLEWIGHIDPYYGDTSYNQKFRGKATLTVDKSSSTAYMQLKSLTSEDSAVYYCVKGGYYGHWYFDVWGAGTTVTVSSATTTAPSVYPLVP
# VL: MDMRAPAQILGFLLLLFPGTRCDIQMTQSPSSLSASLGERVSLTCRASQDIGSSLNWLQQGPDGTIKRLIYATSSLDSGVPKRFSGSRSGSDYSLTISSLESEDFVDYYCLQYVSSPPTFGAGTKLELKRADAAPTVFIFGRIP
# Legend:
# [1] = Phospholipid specificity ELISA; assay type: binding
# Protocol: The specificity of the antibodies was determined by ELISA using plates coated with the following phospholipids: PS, phosphatidylserine; PE, phosphatidylethanolamine; PI, phosphatidylinositol; PA, phosphatidic acid; PG, phosphatidylglycerol; PC, phosphatidylcholine; CL, cardiolipin; and SM, sphingomyelin.
# Anti-PS ELISA = assay type: binding
# Protocol: The anti-PS ELISA used in the present studies example is conducted as follows. Unless particular differences are specified, this is the format of the ELISA used throughout the studies of the present application.
# The ELISA of the present example is exemplified using the antigen PS (P-6641 25 mg 10 mg/ml (solvent is Chloroform:MeOH 95:5) in 2.5 ml bottle). Other phospholipids can be used using the same protocol. The PS (or other phospholipids) stock solution should be aliquoted and stored in an airtight container at −30° C. The preferred 96 well plates are Dynatech U bottom Immulon 1 (from Dynatech Labs, Cat#011-010-3550).
# The standard blocking buffer used in the present example is 10% bovine serum dissolved in PBS. Other blocking solutions are suitable, but any detergents should be excluded from block and wash solutions. The primary antibody is the test sample or admixture. […] The developing solutions are: 10 ml of 0.2M Na2PO4, 10 ml of 0.1M citric acid, one 10 mg tablet of OPD, and 10 μl of hydrogen peroxide. The stop solution is 0.18 M H2SO4.
# The protocol of the present example entails coating 96-well plate with PS as follows: dilute the PS stock solution in n-hexane to 10 μg/ml and mix well. Add 50 μl to each well and allow this to evaporate for one hour. Add 200 μl of 10% serum (or other blocking buffer) to each well, cover and maintain at room temperature for 2 hours or overnight at 4° C. Wash the plate three times with PBS. Add the primary antibody (dilute in blocking buffer) and incubate for 2 hours at 37° C. Wash three times with PBS. […] Wash the plate three times with PBS. Develop the ELISA by adding 100 μl of developing solution to each of the wells, develop for 10 minutes, then add 100 μl of stop solution to each plate and read the O.D. at 490 nm.
# [2] = Serum dependence of binding to PS
# Protocol: The serum dependence or independence of the antibodies is also set forth in Table 2 (see also, Example XXX).
# The 1B9, 2G7 and 7C5 antibodies behave essentially the same. These antibodies recognize only PS and require serum or serum proteins for binding to PS. The binding of 1B9, 2G7 and 7C5 to various phospholipids in the present example was assayed only in the presence of 10% bovine serum, whereas binding of the other antibodies was tested either in the absence or in the presence of serum.
# [3] = tested on: tumor and normal vascular endothelium; experiment: Biodistribution of 9D2 antibody and annexin V in tumor bearing mice; assay type: in vivo, mouse
# Protocol: To detect externally-positioned phospholipids, methods were performed essentially as previously described (Example V; Ran et al., 1998). Tumor-bearing SCID mice were injected intravenously with either 50 μg of 9D2 or biotinylated 9D2 antibody or 100 μg of biotinylated annexin V. Sixty min later mice were sacrificed and their blood circulation was exsanguinated and perfused with heparinized saline as previously described (Burrows et al., 1992). All major organs and tumor were harvested and snap-frozen for preparation of cryosections.
# Sections were blocked with PBS containing 10% serum. To prevent loss of phospholipids during slide processing, detergents and organic solvents were omitted from blocking and washing buffers. Rat IgM was detected using goat anti rat IgM specific)-HRP conjugate followed by development with carbazole or DAB (Fries et al., 1993). Biotinylated reagents were detected by streptavidin conjugated to HRP.
# Tumor sections derived from mice injected with saline or rat IgM of irrelevant specificity served as negative controls. […] No signal was detected under these conditions. The number of positive vessels per high power field was determined at magnification of ×100. At least 10 fields per section were examined and the average percentage of positive vessels was calculated. […]
# Structures with localized 9D2 antibody or annexin V were identified as blood vessels by morphological appearance on DAB-stained sections and by co-incident staining with the pan-endothelial cell marker, MECA 32 on serial sections of frozen tissues. Quantification on DAB-stained sections was done by counting vessels stained by MECA 32, 9D2 or annexin V in serial sections of a tumor. […] At least 10 random fields per section (0.317 mm^2/field) were scored in blinded fashion by two independent observers. The mean numbers and standard errors of vessels stained by 9D2, annexin V or MECA 32 were calculated. The mean number of 9D2 or annexin V-positive vessels determined in each tumor type group was compared to the mean number of MECA 32-positive vessels in the same tumor group. […]
# MDA-MB-435 breast tumors = experiment: 3G4 and chimeric 3G4 tumor treatment; assay type: in vivo, mouse; details: MD-MBA-435s; IP 800 μg day 15, 200 μg every two to three days, 400 μg day 35
# Protocol: Tumors were also established using MD-MBA-435s cells and treated as described above. […] The treatment of large L540 tumors, MDA-MB-231 and MD-MBA-435s tumor cells for 60 days was also effective. The antibodies caused tumor vascular injury, thrombosis and necrosis and retarded tumor growth, with no evidence of toxicity.
# MD-MBA-435s lucerifase cells were obtained from Dr. Angels Sierra Jimenez, Barcelona, Spain and were grown in 10% DMEM. Mice were injected with tumor cells as described as above, and at 2 weeks post injection, the tumors were measured and the volume recorded. […] Treatment was initiated by IP injection (800 μg) at day 15 and continued with injections of 200 μg every two to three days until the final injection of 400 μg at day 35. Tumor volumes and mouse body weights were measured on injection days. Mice were sacrificed and perfused with saline for 12 minutes. The organs and tumor were removed, snap-frozen in liquid nitrogen and the tumor sectioned for immunohistochemistical analysis.
# Groups of 8-10 female SCID mice were injected subcutaneously with 2×10^7 L540 cells or orthotopically with 1×10^7 MDA-MB-435 or MDA-MB-231 cells. BALB/c mice were injected subcutaneously with 1×10^6 Meth A cells. […] Animals were monitored three times a week for tumor size and body weight. […]
# [4] = MW used for conversion: IgM 900 kDa, IgG 150 kDa, Annexin V 36 kDa, read-out: EC50
Molecule,Relative Strength of Reactivity on ELISA [1],EC50 (Anti-PS ELISA; [4]) [nM],EC50 (Anti-PS ELISA; dilutions of tissue culture supernatants) [mg/L],Affinity vs. 3SB (−fold increased) (Anti-PS ELISA; from EC50 in nM) [fold],Binding vs. 3SB (−fold increased) (Anti-PS ELISA; from EC50 in μg/ml) [fold],Serum cofactor? [2],PS-positive vessels of MECA 32-stained vessels per field ([3]; B16 tumor) [%],PS-positive vessels of MECA 32-stained vessels per field ([3]; L540cy tumor) [%],"PS-positive vessels of MECA 32-stained vessels per field ([3]; MDA-MB-231 tumor, one hour after i.v. injection) [%]",binding specificity profile [1],tumor growth vs control (MDA-MB-435 breast tumors)
Annexin V: High affinity PS binding ligand; natural ligand binding anionic phospholipids and PE,PS = PE = PI = PA > CL > PG,2.77,0.100,0.18,4.68,No,21.3 ± 6.6,16.7 ± 3.9,45.3 ± 5.6,,
B1,,0.266,,,,"β2-glycoprotein I and Yes,",,,,PS=PA=PI=PG>CL>>PE,effectively retarded tumor growth
